System: optogenetically induced ventral hippocampal seizures in rats
Conditions: same animals awake and under dexmedetomidine sedation
From the text: (A,B) Ventral hippocampal LFP recordings from the same animal and seizures induced when awake and under sedation. Red arrow indicates large amplitude spike onset, and insets i-iii) are magnified components of those seizures. Blue bar indicates time of optogenetic stimulation (40 Hz with 7.5 ms pulses) (C) Another set of electrophysiological recordings from a different animal in the awake and sedated state. […] Each line represents a single animal.
The afterdischarge threshold was first evaluated for each individual animal by gradually increasing stimulation intensity in a step-wise manner to drive electrographic seizures in the absence of behavioral seizures as assessed using the Racine scale. Starting with a 10 s train of 40 Hz stimulation with a pulse width of 7.5 ms at 1 mW, the power was increased 1 mW at a time with an interstimulus interval (ISI) of 1 min up to a maximum of 20 mW. If no afterdischarges were observed, the duration was increased by 2.5 s and power was reset to 1 mW.
Simultaneous LFP-ofMRI Data Acquisition to assess ventral hippocampal connectivity. To assess ventral hippocampal connectivity, CAMKIIa cells in ventral hippocampus were stimulated at 10 Hz using optogenetic stimulation and assessed using simultaneous LFP-fMRI. Data acquisition was performed using the 7T horizontal-bore system (Bruker BioSpec 70/30) at the Stanford Center for Innovation in In-Vivo Imaging (SCi3). […] A single bolus of Feraheme (15 mg/kg, i.v.) was used for cerebral blood volume (CBV) weighted imaging for the enhanced contrast to noise ratio (Mandeville et al., 1998) and microvascular sensitivity (Zhao et al., 2006) that this technique offers in comparison to BOLD fMRI. fMRI acquisition was carried out approximately 15 min post contrast agent injection using a 4-shot segmented spiral readout with the following acquisition parameters: TR=0.75 ms, TE=9 ms, flip angle=30, field-of-view=32×32 mm, matrix=70×70, slice thickness=0.6 mm, number of slices=30, number of repetitions=130, number of dummy scans=4. […]

## Cc1cccc([C@H](C)c2cnc[nH]2)c1C [dexmedetomidine]
40 Hz, 7.5 ms pulses, FIG. 10D
  proportion of stimulations resulting in afterdischarges, awake vs sedated: No differences
FIG. 10E
  large amplitude spike onset, awake vs sedated: No differences
FIG. 10F
  afterdischarge duration, sedated vs awake: did not result in shorter afterdischarges
